This is an account of results in patent publication US20260034125A1, “N-PHENYL-1-(PHENYLSULFONYL)PIPERIDIN-4-AMINE DERIVATIVES AS CCR6 INHIBITORS” (priority 2023, published 2026).

This assay deals with T1, human CCR6 (Homo sapiens, UniProt P51684).
T1 sequence (P51684 1-374): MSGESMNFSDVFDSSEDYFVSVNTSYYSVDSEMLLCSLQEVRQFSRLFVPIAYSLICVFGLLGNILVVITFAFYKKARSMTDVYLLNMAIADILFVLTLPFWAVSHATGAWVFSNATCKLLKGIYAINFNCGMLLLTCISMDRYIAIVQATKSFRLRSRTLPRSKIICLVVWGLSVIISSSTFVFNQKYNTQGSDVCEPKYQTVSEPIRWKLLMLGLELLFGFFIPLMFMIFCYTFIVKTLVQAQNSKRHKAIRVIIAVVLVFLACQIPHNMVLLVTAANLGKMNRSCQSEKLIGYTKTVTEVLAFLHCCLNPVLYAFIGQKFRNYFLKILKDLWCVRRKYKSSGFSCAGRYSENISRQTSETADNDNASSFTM
As to the kind of experiment: Human CCR6-Cre reporter assay. Set-up: The second construct contained the open reading frame of human CCR6 in the pUNO1 backbone; host or cells: 293 FT cells. Type of assay: cell-based. To be noted: relative -LogIC50; transfected 293 FT cells, 6 μM Forskolin, 6 nM CCL20, luciferase readout, 5h. The procedure:
293 FT cells were transfected with 2 constructs using TransIT-293 (Mirus). The first construct (pGL4.29, Promega) expressed the luciferase reporter gene luc2P in response to the binding of cAMP-induced CREB to the CRE element in its promoter. The second construct contained the open reading frame of human CCR6 in the pUNO1 backbone under the control of an enhanced CMV promoter (In VivoGen). 48h after transfection, cells were harvested and diluted to 750,000 cells/ml in culture medium (DMEM, 10% FBS, 1× pen/strep (Gibco 15140)). Compounds were 2.5-fold serially diluted in DMSO. Further dilutions were made in assay medium (DMEM, 10% FBS, 1× pen/strep, 6 μM Forskolin, 6 nM CCL20). 4 μl of the compound solution was added to a white MW384 plate, followed by 20 μl of the cell suspension. Final DMSO concentration in the assay was 0.1%. The MW384 plate was placed in an incubator at 37° C., 5% CO2 for 5h. Luciferase activity was determined by addition of 24 μl of a 2.5× diluted BriteLite luciferase solution (Perkin Elmer), followed by luminescence measurement using a VICTOR Plate reader (Perkin Elmer). […] The relative-LogIC50 was determined with GraphPad Prism 9 using a four-parameter dose-response model.
On the technique in general: A reporter such as luciferase makes a cellular process visible.

The IC50 is the concentration at which inhibition is half-maximal. A low value points to greater potency.

In turn, `CC(C)c1cnc2ccc(-c3ccc(S(=O)(=O)N4CCC(Nc5ccc(C6(C(F)(F)F)CC6)cn5)CC4)cc3)cn12` [Example 38, N-(1-{4-[3-(propan-2-yl)imidazo[1,2-a]pyridin-6-yl]benzenesulfonyl}piperidin-4-yl)-5-[1-(trifluoromethyl)cyclopropyl]pyridin-2-amine] showed an IC50 of 63.1 nM. Under `Cc1n[nH]c2ccc(-c3ccc(S(=O)(=O)N4CCC(Nc5ccc(C6(C(F)(F)F)CC6)cc5)CC4)cc3)cc12` [Example 2, 1-[4-(3-methyl-1H-indazol-5-yl)benzenesulfonyl]-N-{4-[1-(trifluoromethyl)cyclopropyl]phenyl}piperidin-4-amine] stands 79.4 nM; under `N#CC1(c2ccc(NC3CCN(S(=O)(=O)c4ccc(N5CCC6(CCNC6=O)CC5)cc4)CC3)nc2)CC1` [Example 28, 1-(6-{[1-(4-{1-oxo-2,8-diazaspiro[4.5]decan-8-yl}benzenesulfonyl)piperidin-4-yl]amino}pyridin-3-yl)cyclopropane-1-carbonitrile], 39800 nM. As to `N#CC1(c2ccc(NC3CCN(S(=O)(=O)c4ccc(N5CCC6(CC5)COC6)cc4)CC3)nc2)CC1` [Example 29, 1-(6-{[1-(4-{2-oxa-7-azaspiro[3.5]nonan-7-yl}benzenesulfonyl)piperidin-4-yl]amino}pyridin-3-yl)cyclopropane-1-carbonitrile], 10000 nM corresponded to half-maximal inhibition (IC50). With `N#CC1(c2ccc(NC3CCN(S(=O)(=O)c4ccc(N5CCC(CNC(N)=O)CC5)cc4)CC3)nc2)CC1` [Example 25, [(1-{4-[(4-{[5-(1-cyanocyclopropyl)pyridin-2-yl]amino}piperidin-1-yl)sulfonyl]phenyl}piperidin-4-yl)methyl]urea] the figure was 12600 nM; with `Cc1n[nH]c2ccc(-c3ccc(S(=O)(=O)N4CCC(Nc5ccc(C6CC6)cc5)CC4)cc3)cc12` [Example 11, N-(4-cyclopropylphenyl)-1-[4-(3-methyl-1H-indazol-5-yl)benzenesulfonyl]piperidin-4-amine], 501 nM. Consider `N#CC1(c2ccc(NC3CCN(S(=O)(=O)c4ccc(N5CCC6(CC5)CC(=O)NC(=O)C6)cc4)CC3)nc2)CC1` [Example 26, 1-(6-{[1-(4-{8,10-dioxo-3,9-diazaspiro[5.5]undecan-3-yl}benzenesulfonyl)piperidin-4-yl]amino}pyridin-3-yl)cyclopropane-1-carbonitrile], for which it took 2510 nM to reach half-maximal inhibition (IC50). Under `N#CC1(c2ccc(N[C@H]3CC[C@H](S(=O)(=O)c4ccc(-c5ccc6nccn6c5)cc4)CC3)cc2)CC1` [Example 15, 1-(4-{[trans-4-(4-{imidazo[1,2-a]pyridin-6-yl}benzenesulfonyl)cyclohexyl]Amino}phenyl)cyclopropane-1-carbonitrile] stands 158 nM; under `CC(C)c1cnc2ccc(-c3ccc(S(=O)(=O)N4CCC(Nc5ccc(C6(C(F)(F)F)CC6)cc5)CC4)cc3)cn12` [Example 10, 1-{4-[3-(propan-2-yl)imidazo[1,2-a]pyridin-6-yl]benzenesulfonyl}-N-{4-[1-(trifluoromethyl)cyclopropyl]phenyl}piperidin-4-amine], 100 nM; under `CC(C)c1nnc2cnc(-c3ccc(S(=O)(=O)N4CCC(Nc5ccc(C6(C(F)(F)F)CC6)cn5)CC4)cc3)cn12` [Example 39, N-(1-{4-[3-(propan-2-yl)-[1,2,4]triazolo[4,3-a]pyrazin-6-yl]benzenesulfonyl}piperidin-4-yl)-5-[1-(trifluoromethyl)cyclopropyl]pyridin-2-amine], 63.1 nM. With `N#CC1(c2ccc(NC3CCN(S(=O)(=O)c4ccc(N5CCC6(CC5)COC(=O)N6)cc4)CC3)nc2)CC1` [Example 27, 1-(6-{[1-(4-{2-oxo-3-oxa-1,8-diazaspiro[4.5]decan-8-yl}benzenesulfonyl)piperidin-4-yl]amino}pyridin-3-yl)cyclopropane-1-carbonitrile] the figure was 7940 nM; with `N=S(=O)(c1ccc(-c2ccc3nccn3c2)cc1)[C@H]1CC[C@H](Nc2ccc(C3(C(F)(F)F)CC3)cc2)CC1` (stereo partly drawn) [Example 13, (4-{imidazo[1,2-a]pyridin-6-yl}phenyl) [trans-4-({4-[1-(trifluoromethyl)cyclopropyl]phenyl}Amino)cyclohexyl](imino)-26-sulfanone], 251 nM. With `N#CC1(c2ccc(NC3CCN(S(=O)(=O)c4ccc(-c5ccc6nccn6c5)cc4)CC3)nc2)CC1` [Example 33, 1-(6-{[1-(4-{imidazo[1,2-a]pyridin-6-yl}benzenesulfonyl)piperidin-4-yl]amino}pyridin-3-yl)cyclopropane-1-carbonitrile] the figure was 794 nM; with `N#CC1(c2ccc(NC3CCN(S(=O)(=O)c4ccc(N5CCC(CC(N)=O)CC5)cc4)CC3)nc2)CC1` [Example 24, 2-(1-{4-[(4-{[5-(1-cyanocyclopropyl)pyridin-2-yl]amino}piperidin-1-yl)sulfonyl]phenyl}piperidin-4-yl) acetamide], 5010 nM. For the molecule `COC1CC2(CCN(c3ccc(S(=O)(=O)N4CCC(Nc5ccc(C6(C#N)CC6)cn5)CC4)cc3)CC2)C1` [Example 23, 1-(6-{[1-(4-{2-methoxy-7-azaspiro[3.5]nonan-7-yl}benzenesulfonyl)piperidin-4-yl]amino}pyridin-3-yl)cyclopropane-1-carbonitrile], the IC50 is 1260 nM.

In the case of `CC(C)c1cnc2ccc(-c3ccc(S(=O)(=O)N4CCC(Nc5ccc(C6(C#N)CC6)cn5)CC4)cc3)cn12` [Example 34, 1-{6-[(1-{4-[3-(propan-2-yl)imidazo[1,2-a]pyridin-6-yl]benzenesulfonyl}piperidin-4-yl)amino]pyridin-3-yl}cyclopropane-1-carbonitrile], the IC50 was 200 nM. With `O=S(=O)(c1ccc(-c2ccc3nccn3c2)cc1)[C@H]1CC[C@H](Nc2ccc(C3COC3)cc2)CC1` [Example 18, 4-(oxetan-3-yl)-N-[trans-4-(4-{imidazo[1,2-a]pyridin-6-yl}benzenesulfonyl)cyclohexyl]aniline] the figure was 398 nM; with `N#Cc1ccc(-c2ccc(S(=O)(=O)N3CCC(Nc4ccc(C5(C#N)CC5)cc4)CC3)cc2)cc1` [Example 1, 4′-[(4-{[4-(1-cyanocyclopropyl)phenyl]Amino}piperidin-1-yl)sulfonyl]-[1,1′-biphenyl]-4-carbonitrile], 501 nM; with `N#Cc1c[nH]c2ccc(-c3ccc(S(=O)(=O)N4CCC(Nc5ccc(C6(C(F)(F)F)CC6)cc5)CC4)cc3)cc12` [Example 8, 5-(4-{[4-({4-[1-(trifluoromethyl)cyclopropyl]phenyl}Amino)piperidin-1-yl]sulfonyl}phenyl)-1H-indole-3-carbonitrile], 39.8 nM.

`O=S(=O)(c1ccc(-c2ccc3nccn3c2)cc1)[C@H]1CC[C@H](Nc2ccc(C3CC3(F)F)cc2)CC1` (stereo partly drawn) [Example 14, 4-(2,2-difluorocyclopropyl)-N-[trans-4-(4-{imidazo[1,2-a]pyridin-6-yl}benzenesulfonyl)cyclohexyl]aniline] had an IC50 of 251 nM. With `O=S(=O)(c1ccc(-c2ccc3nccn3c2)cc1)N1CCC(Nc2ccc(C3(C(F)(F)F)CC3)cc2)CC1` [Example 9, 1-(4-{imidazo[1,2-a]pyridin-6-yl}benzenesulfonyl)-N-{4-[1-(trifluoromethyl)cyclopropyl]phenyl}piperidin-4-amine] the figure was 100 nM.
